Assay results reported in paper PMC10877416 (Translational Oncology, 2024).
Bridge positions count the residues as written; N and C are the ends. Square brackets hold non-standard residues; d marks the D form. Ends that are not written are not given here. Peptide text beside a SMILES is read from it. * marks the point of attachment. Biotin = O=C1N[C@H]2[C@H](CS[C@H]2CCCCC(=O)*)N1; Nle = CCCC[C@H](N)C(=O)O; Abu = CC[C@H](N)C(=O)O

Tests used:
PD-1 = target: T1, PD-1 (Homo sapiens, UniProt Q15116); experiment: SPR analysis: PD-1 titrated over immobilized biotinylated peptides or PD-L1; assay type: binding; details: SPR KD 198 µM versus 2.04 µM
T1 construct: purchased Recepton Company, Poland R1–001–03
T1 sequence (Q15116 25-288): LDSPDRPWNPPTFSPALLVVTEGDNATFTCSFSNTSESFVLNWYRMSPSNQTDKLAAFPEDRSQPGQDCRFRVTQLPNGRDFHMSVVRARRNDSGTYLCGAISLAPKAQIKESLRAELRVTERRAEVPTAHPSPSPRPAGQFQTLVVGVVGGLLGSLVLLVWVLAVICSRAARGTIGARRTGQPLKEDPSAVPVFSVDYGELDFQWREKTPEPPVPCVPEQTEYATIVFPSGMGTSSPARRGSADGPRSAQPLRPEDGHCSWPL
Experimental: To obtain the kinetic parameters of the peptide/protein interaction the SPR technique was used.
Biacore T200 equipment (Cytiva, Marlborough, USA) was used to perform SPR analysis according to the manufacturer's protocol. […] All measurements were performed using PBS-P as a running buffer; the flow rate was set to 30 μl/min at 25°C. The chip was regenerated with 1.5 M NaCl and 10 mM glycine pH 3. The obtained data were analysed using Biacore T200 Evaluation Software (Cytiva, Marlborough, USA).
Results were calculated using Biacore T200 Evaluation Software, from at least three independent titration analyses. The 1:1 binding model was applied.

PD-1/PD-L1 complex = target: T2, PD-1/PD-L1 complex (Homo sapiens, UniProt Q15116); experiment: PD-1 T cell NF-κB::eGFP reporter co-culture assay; assay type: cell-based; details: PD-1 reporter cells + TCS CD86/PD-L1; peptide 150.00-5.56 µM; 90 min preincubation, 24 h co-culture; flow cytometry; normalized to PD-1 reporter/TCS CD86
T2 construct: expressed in transfected cells
T2 sequence (Q15116 25-288, one chain of several): as the sequence (Q15116 25-288) above
Experimental: Moreover, NF-κB-eGFP activation (signal 2) is enhanced by the interaction of CD86 on TCS with CD28 on modified Jurkat cells. […] The peptides were tested at concentrations between 150.00 and 5.56 µM.
The experiment was performed on 96-well tissue culture-treated transparent plates by using RPMI 1640 medium containing 10 % FBS. The cells were seeded into the wells at the density of 5 × 10^4 cells/well for reporter cells and 2 × 10^4 cells/well for TCS cell lines. The peptides were prepared in three-fold serial dilutions in concentrations ranging from 150.00 to 5.56 μM and were preincubated with the reporter cells for 90 min. Subsequently, cells of the second cell line were added; co-culture was performed for 24 h at 37°C under a 5 % CO2 atmosphere. […] After 24 h, the cells were harvested, stained with APC-conjugated mCD45.2 mAb to exclude TCS from the analysis, and eGFP expression was measured by flow cytometry. The mean and standard deviation values of the gMFI of the viable cell population were determined. The experiment was performed at least three times in duplicate. […] The flow cytometry analysis was performed on a FACSCalibur flow cytometer (Becton Dickinson Immunocytometry System, USA) by using CellQuest software. Data were analysed with FlowJo (version 10.0.6, Tree Star, Ashland, OR) and GraphPad Prism (version 8, GraphPad Software, Inc., La Jolla, CA).

Solubility in water = assay type: physicochemical
Text: To increase solubility, its sequence was elongated at the N- and C-terminals by adding hydrophilic amino acids from the protein sequence. […] These modifications were introduced to prevent the oxidation of methionine and cysteine.

Jurkat E6.1 cells = experiment: Cell viability assay (CellTiter-Glo), Jurkat E6.1 cells; details: 24 h; for Effect on Jurkat E6.1 cells at lower concentrations: concentrations below the highest tested (150.00 to 5.56 µM range); for Number of living, metabolically active Jurkat E6.1 cells: highest tested concentration (150.00 µM), normalized to untreated cells, three experiments in triplicate
Experimental: (§2) The influence of the peptides on Jurkat E6.1 cells and genetically modified BW5417 (T cell stimulators, TCS Ctrl) cells was subsequently examined. […] Cell viability was measured after 24 h of incubation with peptide concentrations ranging from 150.00 to 5.56 µM. The CellTiter-Glo® luminescence-based assay was used to estimate the number of viable cells. This test allowed determination of adenosine triphosphate (ATP), which is related to the metabolically active cells and proportional to the number of living cells . The results were compared and normalized to untreated cells (Fig. 5A).
(§3) Cell line viability was examined on two cell lines – Jurkat E6.1 cells and TCS Ctrl cells. The experiments were performed on 96-well solid white plates for cell culture. Jurkat E6.1 cells and TCS Ctrl cells were seeded into wells on the day of the experiment at the density of 2 × 10^4 cells per well in 50 µl RPMI 1640 medium containing 10 % FBS. Subsequently, 50 µl of peptides at 150 to 1.90 µM concentrations were added to the wells. Cell viability was measured using 100 µl of Cell Titter-Glo (Promega Corporation, #G7570) added to the wells. Luminescence was measured on a Spark M10 plate reader (Tecan, Switzerland) with an integration time of 0.5 s. The experiment was performed at least three times, and the results were analysed by GraphPad Prism 8 software.

[1] = tested on: Jurkat E6.1 and HCT-116 cells; details: co-culture model with activated Jurkat E6.1 and HCT-116 cells; cited from earlier work
Experimental: (§1) To better examine the potency of the PD-L1-derived peptides at the cellular level, competitive assays and stimulation assays were performed. […] These differences in obtained results may be due to the fact that in SPR and ELISA, the peptide is immobilized to the surface of the sensor or the plate, while it is in the solution in cellular assays. Moreover, the immobilization of the peptide may ...

[2] = tested on: murine primary lymphocytes and Jurkat cells; details: cited from earlier work
Experimental: as §1

[3] = Peptide stability in RPMI 1640 medium with 10 % FBS; details: RPMI 1640 + 10 % heat-inactivated FBS; for Additional decrease in peptide content after 24 h of incubation: 37°C; for Stability in the medium: 0 and 24 h
Experimental: Samples were collected at 0 h and after 24 h of incubation and analysed by RP-HPLC. The peptide content in the samples was determined by comparing the corresponding peak areas to those of control samples, which constituted the corresponding peptides dissolved in H2O at 0 h. The conditions selected for the stability experiment were intended to simulate those used for cellular research.
Samples were prepared by dissolving the peptides in H2O and adding them to the medium in the ratio of 1:3 (v:v). The final concentration of the peptides in the sample was 100 μM. The samples before analysis were collected at two time points: 0 h and 24 h of incubation (37°C with continuous stirring). The samples were then frozen in liquid N2 and stored at -80°C until the end of the experiment. Prior to analysis, the samples were thawed on ice, suspended in a 4-fold excess of absolute ethanol (v:v), and centrifuged (15,000 rpm, 4°C, 20 min). The supernatant was then transferred to test tubes, evaporated using a vacuum concentrator, then dissolved in 100 μl of 0.1 % trifluoroacetic acid (TFA) in H2O. The analysis was performed by analytical RP-HPLC using a Luna C18(2) (250 mm × 4.6 mm, 5 μm) column and a linear gradient from 5 % B to 100 % B in A over 60 min (A: 0.1 % TFA in H2O; B: 0.08 % TFA in 80 % ACN in H2O). Peptides that dissolved in H2O and the medium with 10 % FBS (without peptides) were used as controls.

TCS Ctrl cells = experiment: Cell viability assay (CellTiter-Glo), TCS Ctrl cells; assay type: cell-based; details: highest tested concentration, 24 h
Experimental: as §2, §3

PD-1 (Recepton) = target: T3, PD-1 (Recepton) (human, UniProt Q15116 25-170); experiment: SPR; Biacore T200; biotinylated peptides (~800 RU; L1 ~500 RU) or biotinylated PD-L1 immobilised on an SA sensor chip; PD-1 injected at 10 to 0.31 µM; PBS-P running buffer, 30 µl/min, 25°C; details: both partners purified
T3 construct: also called PD-1 protein; source: bought: Recepton Company, Poland, #R1–001–03
T3 sequence (Q15116 25-170): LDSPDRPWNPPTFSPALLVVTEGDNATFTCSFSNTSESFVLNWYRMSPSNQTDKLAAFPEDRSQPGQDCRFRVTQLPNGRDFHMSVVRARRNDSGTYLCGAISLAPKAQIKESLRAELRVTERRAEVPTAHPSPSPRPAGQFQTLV

[4] = pH 8.0, 100 μM peptide, RP-HPLC

Molecule: CCCC[C@H](NC(=O)[C@H](CC)NC(=O)[C@H](CCCNC(=N)N)NC(=O)[C@H](Cc1ccc(O)cc1)NC(=O)[C@@H](NC(C)=O)C(C)C)C(=O)N[C@H](C(=O)N[C@@H](CO)C(=O)N[C@@H](Cc1ccc(O)cc1)C(=O)NCC(=O)NCC(=O)N[C@@H](C)C(=O)N[C@@H](CC(=O)O)C(=O)N[C@@H](Cc1ccc(O)cc1)C(=O)N[C@@H](CCCCN)C(=O)N[C@@H](CCCNC(=N)N)C(=O)N[C@H](C(=O)N[C@H](C(N)=O)[C@@H](C)O)[C@@H](C)CC)[C@@H](C)CC [Peptide L7] (HELM PEPTIDE1{[ac].V.Y.R.[Abu].[Nle].I.S.Y.G.G.A.D.Y.K.R.I.T.[am]}$$$$V2.0)
- KD of (L7) relative to (L11), fold weaker (PD-1): approximately 97 fold
- Restoration of eGFP expression in the reporter assay (PD-1/PD-L1 complex): concentration-dependent effect

Molecule: CCCC[C@H](NC(=O)[C@H](CCC(=O)O)NC(=O)[C@H](Cc1c[nH]c2ccccc12)NC(=O)[C@H](Cc1ccc(O)cc1)NC(=O)[C@@H](NC(=O)[C@@H](NC(=O)[C@H](CC(C)C)NC(=O)[C@H](C)NC(C)=O)[C@@H](C)CC)C(C)C)C(=O)N[C@@H](CCC(=O)O)C(=O)N[C@@H](CC(=O)O)C(=O)N[C@@H](CCCCN)C(=O)N[C@@H](CC(N)=O)C(=O)N[C@H](C(=O)N[C@H](C(=O)N[C@@H](CCC(N)=O)C(=O)N[C@@H](Cc1ccccc1)C(=O)N[C@H](C(=O)N[C@@H](Cc1c[nH]cn1)C(=O)NCC(=O)N[C@@H](CCC(=O)O)C(=O)N[C@@H](CCC(=O)O)C(=O)N[C@@H](CC(=O)O)C(=O)N[C@@H](CC(C)C)C(=O)N[C@@H](CCCCN)C(=O)N[C@H](C(=O)N[C@@H](CCC(N)=O)C(=O)N[C@@H](Cc1c[nH]cn1)C(=O)N[C@@H](CO)C(N)=O)C(C)C)C(C)C)[C@@H](C)CC)[C@@H](C)CC [Peptide L4] (HELM PEPTIDE1{[ac].A.L.I.V.Y.W.E.[Nle].E.D.K.N.I.I.Q.F.V.H.G.E.E.D.L.K.V.Q.H.S.[am]}$$$$V2.0)
- Solubility in water (Solubility in water): no positive effect on the solubility

Molecule: CCCC[C@@H]1NC(=O)[C@@H](NC(=O)[C@H](CCCNC(=N)N)NC(C)=O)CSSC[C@@H](C(=O)N[C@@H](CCCNC(=N)N)C(=O)N[C@H](C(N)=O)[C@@H](C)CC)NC(=O)[C@H](Cc2ccc(O)cc2)NC(=O)[C@H](CC(=O)O)NC(=O)[C@H](C)NC(=O)[C@H](Cc2ccccc2)NC(=O)CNC(=O)[C@H](Cc2ccc(O)cc2)NC(=O)[C@H](CO)NC(=O)[C@H]([C@@H](C)CC)NC1=O [Peptide L13]
- Effect on Jurkat E6.1 cells at lower concentrations (Jurkat E6.1 cells): no negative effects at lower concentrations
- Number of living, metabolically active Jurkat E6.1 cells (Jurkat E6.1 cells): 3%

Molecule: CCCC[C@H](NC(=O)[C@H](CCC(=O)O)NC(=O)[C@H](Cc1c[nH]c2ccccc12)NC(=O)[C@H](Cc1ccc(O)cc1)NC(=O)[C@@H](NC(=O)[C@@H](NC(=O)[C@H](CC(C)C)NC(=O)[C@H](C)NC(C)=O)[C@@H](C)CC)C(C)C)C(=O)N[C@@H](CCC(=O)O)C(=O)N[C@@H](CC(=O)O)C(=O)N[C@@H](CCCCN)C(=O)N[C@@H](CC(N)=O)C(=O)N[C@H](C(=O)N[C@H](C(=O)N[C@@H](CCC(N)=O)C(=O)N[C@@H](Cc1ccccc1)C(=O)N[C@H](C(=O)N[C@@H](Cc1c[nH]cn1)C(=O)NCC(=O)N[C@@H](CCC(=O)O)C(=O)N[C@@H](CCC(=O)O)C(=O)N[C@@H](CC(=O)O)C(N)=O)C(C)C)[C@@H](C)CC)[C@@H](C)CC [Peptide L3] (HELM PEPTIDE1{[ac].A.L.I.V.Y.W.E.[Nle].E.D.K.N.I.I.Q.F.V.H.G.E.E.D.[am]}$$$$V2.0)
- Solubility in water (Solubility in water): no positive effect on the solubility

Molecule: RTMIWYpGAWYKRI [Peptide P1.3, Wang et al. peptide with D-proline in the loop and a tryptophan zipper]
- IL-2 secretion [1]: has the ability to restore IL-2 secretion

Molecule: GADYKRITVKVN [PL120131]
- Apoptotic signal induced by sPD-L1 [2]: reverses the apoptotic signal

Molecule: CC(=O)N[C@@H](C)C(=O)N[C@@H](CC(=O)O)C(=O)N[C@@H](Cc1ccc(O)cc1)C(=O)N[C@@H](CCCCN)C(=O)N[C@@H](CCCNC(=N)N)C(N)=O [Peptide L15] (Ac-ADYKR-NH2)
- Amount of peptide at 0 h, relative to control ([3]; pH 8.0, 100 μM peptide, 0 h, RP-HPLC peak area vs peptide in H2O at 0 h, three independent experiments): 88%
- Additional decrease in peptide content after 24 h of incubation [3, 4]: 12%
- Stability in the medium ([3]; RP-HPLC): least concentration fluctuation
- Restoration of eGFP expression in the reporter assay (PD-1/PD-L1 complex): concentration-dependent effect

Molecule: CCCC[C@H](NC(=O)[C@H](CCC(=O)O)NC(=O)[C@H](Cc1c[nH]c2ccccc12)NC(=O)[C@H](Cc1ccc(O)cc1)NC(C)=O)C(=O)N[C@@H](CCC(=O)O)C(=O)N[C@@H](CC(=O)O)C(=O)N[C@@H](CCCCN)C(=O)N[C@@H](CC(N)=O)C(=O)N[C@H](C(=O)N[C@H](C(=O)N[C@@H](CCC(N)=O)C(N)=O)[C@@H](C)CC)[C@@H](C)CC [Peptide L6] (HELM PEPTIDE1{[ac].Y.W.E.[Nle].E.D.K.N.I.I.Q.[am]}$$$$V2.0)
- Solubility in water (Solubility in water): no positive effect on the solubility

Molecule: CCCC[C@@H]1NC(=O)[C@@H](NC(=O)[C@H](CCCNC(=N)N)NC(C)=O)CSSC[C@@H](C(=O)N[C@@H](CCCNC(=N)N)C(=O)N[C@H](C(N)=O)[C@@H](C)CC)NC(=O)[C@H](Cc2ccc(O)cc2)NC(=O)[C@H](CC(=O)O)NC(=O)[C@H](C)NC(=O)[C@H](CO)NC(=O)CNC(=O)[C@H](Cc2ccc(O)cc2)NC(=O)[C@H](CO)NC(=O)[C@H]([C@@H](C)CC)NC1=O [Peptide L12]
- Effect on Jurkat E6.1 cells at lower concentrations (Jurkat E6.1 cells): no negative effects at lower concentrations
- Number of living, metabolically active Jurkat E6.1 cells (Jurkat E6.1 cells): 38%
- Decrease in the amount of peptide at 0 h compared to control ([3]; pH 8.0, 100 μM peptide, 0 h, RP-HPLC): approximately 10%
- Additional decrease in peptide content after 24 h of incubation [3, 4]: ~11%
- Stability in the medium ([3]; RP-HPLC): highest stability
- Effect on TCS Ctrl cell viability (TCS Ctrl cells): significant decrease in cell viability

B1: biotin-GGGGG-PD-L1(111–127) (L7) (peptide)
chain: Biotin-GGGGGVYR[Abu][Nle]ISYGGADYKRIT
- Kd (PD-1 (Recepton)): 198 µM

B2: biotin-GGGGG-PD-L1(113–126) (L8) (peptide)
chain: Biotin-GGGGGR[Abu][Nle]ISYGGADYKRI
- Kd (PD-1 (Recepton)): 14.9 µM

B3: biotin-GGGGG-PD-L1(110–128)^(V111C-T127C) (L10) (peptide)
chain: Biotin-GGGGGGCYR[Abu][Nle]ISYGGADYKRICV
modifications: disulfide 7-23
- Kd (PD-1 (Recepton)): 22 µM
